Results as given in paper PMC8745486, “Removal of Persistent Sulfamethoxazole and Carbamazepine from Water by Horseradish Peroxidase Encapsulated into Poly(Vinyl Chloride) Electrospun Fibers” (International Journal of Molecular Sciences, 2021).
Where a name gives a salt, the structure may show the parent alone.

Tested on: T1, horseradish peroxidase (HRP)
T1 construct: gene PRXC1A
Details: read-out: Free HRP; free enzyme; pH 7, 25 °C; 0.1 to 5 mM ABTS; H2O2 not stated for the kinetic assay

Km: 1.54 ± 0.13 mM
Structure (SMILES): CCn1c(=NN=c2sc3cc(S(=O)(=O)O)ccc3n2CC)sc2cc(S(=O)(=O)O)ccc21 [ABTS, 2,2′-azino-bis(3-ehylbenzothiazoline-6-sulfonic acid) diammonium salt]
